Reference: patent US20230355605A1, “DRUG FOR ENHANCING FIBRINOLYTIC SYSTEM, AND USE THEREFOR” (priority 2020, published 2023)

Columns and labels:
[1] = system: CHL/IU cells; test: Chromosomal abnormality study; assay type: cell-based, Chinese hamster; settings: with and without S9 mix
Experimental: A study on the clastogenic property of the present compound was performed in the presence of a drug metabolism-activating enzyme (S9 mix) (hereinafter referred to as a “metabolic activation method”) and in the absence of a drug metabolism-activating enzyme (S9 mix) (hereinafter referred to as a “direct method”) using mammalian cultured cells (Chinese hamster cultured cells (CHL/IU cells)).

[2] = parameters: species or system human; settings: in vivo, po
Experimental: A placebo-controlled single oral dose study was performed to examine the safety and pharmacokinetics upon single oral dose administration of the present compound in healthy Japanese adult males (subjects).
The oral dosages were 30 mg (step 1), 60 mg (step 2), 120 mg (step 3), and 240 mg (step 5) per day, and the food effect was separately examined in administration at a dosage of 60 mg (step 4) (a total of five steps). In steps 1 to 3 and 5, the number of subjects per step was 8 (6 subjects in the present compound administration group and 2 subjects in the placebo group), of which 1 subject of the present compound administration group and 1 subject of the placebo group were used as the preceding group, and 5 subjects of the present compound administration group and 1 subject of the placebo group were used as the following group. The study proceeds to the following group after confirming safety in the preceding group. The transition from one step to the next was made after confirming safety. In step 4, which examines the food effect, the present compound was orally administered to all 6 subjects. […]
After administration of the present compound and the placebo, the following items were evaluated in each subject. […]

[3] = system: patients with COVID-19 pneumonia (mild to moderate); test: Effectiveness study for COVID-19 pneumonia (exploratory early phase II study); assay type: in vivo, human
Source text: The effect of the present compound to prevent the aggravation of COVID-19 pneumonia and its safety were explored.
Occurrence of transition to oxygen supply treatment under mechanical ventilation after the oral administration of the present compound (occurrence of deterioration of oxygenation)
• (a) Survival for 28 days from the start of administration of the present compound • (b) Duration of hospitalization after the start of administration of the present compound • (c) Number of days required for oxygen administration after the start of administration of the present compound (d) Changes in the proportion of lesions in the lung field on chest CT images before and after the administration of the present compound
Occurrence of adverse events after the start of administration of the present compound until the end of observation

[4] = system: t-PA; test: t-PA activity in blood, phase I repeated oral dose study; assay type: in vivo, human
Experimental: The pharmacological activities (PAI-1 activity and t-PA activity) were evaluated using blood collected from the subjects before and after administration of the present compound or the placebo as test samples. Blood was collected before administration and 2, 4, and 8 hours after administration on the first day of the experiment (day 1) and day 7 after the start of the experiment, and on the other days, blood was collected once a day before administration (only before administration on days 2 to 6, day 8, and day 11 after the start of administration).
After collecting blood samples from the subjects, the samples were treated with 0.5 M sodium citrate (pH of 4.3) and centrifuged at 4° C., 2,500 g for 15 minutes to obtain plasma. The collected plasma was used for measurement of t-PA activity and stored frozen at -80° C. until measurement.
The t-PA activity was measured using a ZYMUPHEN tPA Activity kit (produced by HYPHEN BioMed). In this system, a plasma sample collected from a subject is reacted with human plasminogen to form plasmin by the action of tPA, the plasmin is reacted with a substrate specific to plasmin, and pNA, which is a degradation product produced, is measured by the absorbance at a wavelength of 405 nm with a plate reader.

[5] = 120 to 180 mg/day oral, 14 days
[6] = after the start of administration, excluding undescribed and discontinued cases
[7] = start of administration to end of observation, 26 patients

In the case of `O=C(Nc1ccc(Cl)cc1C(=O)[O-])c1cccc(-c2cccc3cccnc23)c1.[Na+]` [present compound, sodium 5-chloro-2-({ [3-(quinolin-8-yl)phenyl]carbonyl}amino)benzoate], the clastogenic effect [1] is reported as “no clastogenic effect”, the AUC versus dosage [2] is reported as “linearity” and the “deterioration of oxygenation requiring mechanical ventilation” value [3, 5] is reported as “no cases”. For the same compound, the “number of days required for oxygen administration after the start of administration” value [3, 5] was “gradually decreased”, the “survival for 28 days from the start of administration” value [3, 5] was “all cases survived” and the “adverse events in patients concomitantly treated with Remdesivir, Avigan, inhaled steroid or antiplatelet agent” value ([3]; Remdesivir 8, Avigan 5, inhaled steroid 22, antiplatelet agent 5 cases) was “no adverse events requiring treatment”. For the same compound, the “Number of cases with duration of hospitalization 8 to 12 days” value [3, 6] was 5, the “Number of cases with duration of hospitalization 13 to 17 days” value [3, 6] was 12 and the “Number of cases with duration of hospitalization 18 to 22 days” value [3, 6] was 4. For the same compound, the “number of cases, oxygen dosage 0 L/day” value ([3]; day 1) was 3, the “number of cases, oxygen dosage 2 or less L/day” value ([3]; day 1) was 12 and the “number of cases, oxygen dosage 5 or more L/day” value ([3]; day 1) was 3. The “number of cases, oxygen dosage More than 2 less than 5 L/day” value ([3]; day 1) was 5, the “number of cases, oxygen dosage 0 L/day” value ([3]; day 2) was 3 and the “number of cases, oxygen dosage 2 or less L/day” value ([3]; day 2) was 12. The “number of cases, oxygen dosage 5 or more L/day” value ([3]; day 2) was 2, the “number of cases, oxygen dosage More than 2 less than 5 L/day” value ([3]; day 2) was 6 and the “number of cases, oxygen dosage 0 L/day” value ([3]; day 3) was 4. For the same compound, the “number of cases, oxygen dosage 2 or less L/day” value ([3]; day 3) was 13, the “number of cases, oxygen dosage 5 or more L/day” value ([3]; day 3) was 0 and the “number of cases, oxygen dosage More than 2 less than 5 L/day” value ([3]; day 3) was 6. For the same compound, the “number of cases, oxygen dosage 0 L/day” value ([3]; day 4) was 7, the “number of cases, oxygen dosage 2 or less L/day” value ([3]; day 4) was 11 and the “number of cases, oxygen dosage 5 or more L/day” value ([3]; day 4) was 0. The “number of cases, oxygen dosage More than 2 less than 5 L/day” value ([3]; day 4) was 5, the “number of cases, oxygen dosage 0 L/day” value ([3]; day 5) was 7 and the “number of cases, oxygen dosage 2 or less L/day” value ([3]; day 5) was 12. The “number of cases, oxygen dosage 5 or more L/day” value ([3]; day 5) was 0, the “number of cases, oxygen dosage More than 2 less than 5 L/day” value ([3]; day 5) was 4 and the “number of cases, oxygen dosage 0 L/day” value ([3]; day 6) was 10. For the same compound, the “number of cases, oxygen dosage 2 or less L/day” value ([3]; day 6) was 9, the “number of cases, oxygen dosage 5 or more L/day” value ([3]; day 6) was 0 and the “number of cases, oxygen dosage More than 2 less than 5 L/day” value ([3]; day 6) was 4. The “number of cases, oxygen dosage 0 L/day” value ([3]; day 7) was 10, the “number of cases, oxygen dosage 2 or less L/day” value ([3]; day 7) was 9 and the “number of cases, oxygen dosage 5 or more L/day” value ([3]; day 7) was 0. For the same compound, the “number of cases, oxygen dosage More than 2 less than 5 L/day” value ([3]; day 7) was 4, the “number of cases, oxygen dosage 0 L/day” value ([3]; day 8) was 12 and the “number of cases, oxygen dosage 2 or less L/day” value ([3]; day 8) was 10. For the same compound, the “number of cases, oxygen dosage 5 or more L/day” value ([3]; day 8) was 0, the “number of cases, oxygen dosage More than 2 less than 5 L/day” value ([3]; day 8) was 1 and the “number of cases, oxygen dosage 0 L/day” value ([3]; day 9) was 13. For the same compound, the “number of cases, oxygen dosage 2 or less L/day” value ([3]; day 9) was 9, the “number of cases, oxygen dosage 5 or more L/day” value ([3]; day 9) was 0 and the “number of cases, oxygen dosage More than 2 less than 5 L/day” value ([3]; day 9) was 1. For the same compound, the “number of cases, oxygen dosage 0 L/day” value ([3]; day 10) was 17, the “number of cases, oxygen dosage 2 or less L/day” value ([3]; day 10) was 6 and the “number of cases, oxygen dosage 5 or more L/day” value ([3]; day 10) was 0. The “number of cases, oxygen dosage More than 2 less than 5 L/day” value ([3]; day 10) was 0, the “number of cases, oxygen dosage 0 L/day” value ([3]; day 11) was 18 and the “number of cases, oxygen dosage 2 or less L/day” value ([3]; day 11) was 5. For the same compound, the “number of cases, oxygen dosage 5 or more L/day” value ([3]; day 11) was 0, the “number of cases, oxygen dosage More than 2 less than 5 L/day” value ([3]; day 11) was 0 and the “number of cases, oxygen dosage 0 L/day” value ([3]; day 12) was 20. For the same compound, the “number of cases, oxygen dosage 2 or less L/day” value ([3]; day 12) was 3, the “number of cases, oxygen dosage 5 or more L/day” value ([3]; day 12) was 0 and the “number of cases, oxygen dosage More than 2 less than 5 L/day” value ([3]; day 12) was 0. For the same compound, the “number of cases, oxygen dosage 0 L/day” value ([3]; day 13) was 21, the “number of cases, oxygen dosage 2 or less L/day” value ([3]; day 13) was 2 and the “number of cases, oxygen dosage 5 or more L/day” value ([3]; day 13) was 0. The “number of cases, oxygen dosage More than 2 less than 5 L/day” value ([3]; day 13) was 0, the “number of cases, oxygen dosage 0 L/day” value ([3]; day 14) was 22 and the “number of cases, oxygen dosage 2 or less L/day” value ([3]; day 14) was 1. For the same compound, the “number of cases, oxygen dosage 5 or more L/day” value ([3]; day 14) was 0, the “number of cases, oxygen dosage More than 2 less than 5 L/day” value ([3]; day 14) was 0 and the “number of cases with reduced proportion of lesions in the lung field on chest CT images” value ([3]; out of 18 cases, administration for 14 days) was 13 cases. For the same compound, the “adverse events related to the present compound and requiring treatment” value ([3]; start of administration to end of observation) was “no adverse events that were related to the present compound and that required treatment”, the “number of adverse events” value [3, 7] was 33 and the “number of patients with adverse events” value [3, 7] was 17 patients. For the same compound, the “t-PA activity in blood vs placebo” value ([4]; 60 mg/day oral, days 1 and 7) was “neither PAI-1 activity nor t-PA activity was different”, the “time after administration of maximal increase in t-PA activity” value ([4]; 120 mg/day oral) was 8 h and the “t-PA activity in blood” value ([4]; 120 mg/day oral, days 1 and 7) was “increased”.
